Assays:
γ/δ T cells [1] = conditions: cited from earlier work
Vγ2/Vδ2 T cells [2] = test system: Vγ2/Vδ2 T cells
Vγ2/Vδ2 T cells [3] = test system: Vγ2/Vδ2 T cells; remark: listed apart in the source
γ/δ T cells [4] = conditions: in vivo, iv; cited from earlier work

O=P(O)(O)C(O)(Cc1cccnc1)P(=O)(O)O [Risedronate]
activity for stimulating γ/δ T cells (γ/δ T cells [1]): highly active

NCCCC(O)(P(=O)(O)O)P(=O)(O)O [Alendronate]
total CD3+ T cells that produced IFNγ (Vγ2/Vδ2 T cells [2]): 5-10% | subset showing intracellular IFNγ (Vγ2/Vδ2 T cells [3]): restricted to the Vγ2/Vδ2 subset

NCCC(O)(P(=O)(O)O)P(=O)(O)O [pamidronate, Pamidronate]
change in γ/δ T cell count after drug infusion (γ/δ T cells [4]): increase in γ/δ T cell count
